Data on 16 compounds can be found in patent US8367666B2 (priority 2004, dated 2013).

Like-named read-outs stand apart in the source and are kept apart here.

In assay [1] the target is T1, CB1 receptor (Homo sapiens, UniProt P21554). In words: Human cannabinoid receptor bonding inhibition test ([3H]CP55940), CB1. The assay is classed as binding. The arrangement: expressed in transfected cells; membrane fraction.
Assay [2] addresses T2, CB2 receptor (Homo sapiens, UniProt P34972). Nature of the assay: cAMP formation inhibition experiment through a cannabinoid receptor (forskolin stimulation), CB2. Also on record: expressed in transfected cells; host or cells: CHO cells. The assay is classed as cell-based.
The target of assay [3] is T2, CB2 receptor. In words: Human cannabinoid receptor bonding inhibition test ([3H]CP55940), CB2. The assay is classed as binding. The arrangement: expressed in transfected cells; membrane fraction.
Assay [4] concerns the target T1, CB1 receptor. Nature of the assay: cAMP formation inhibition experiment through a cannabinoid receptor (forskolin stimulation), CB1. The assay is classed as cell-based. The arrangement: expressed in transfected cells; host or cells: CHO cells. The method, then:
A compound being tested was added in the CHO cell which had mad human CB1 or CB2 receptor reveal and incubated for 15 minutes, and then forskolin (the final concentration 4 μM, and manufactured by SIGMA Corp.) was added and the mixture was incubated for 20 minutes. After the reaction had been stopped by adding 1M hydrochloric acid, the amount of cAMP in the supernatant was measured with the use of Cyclic AMP kit (made by the CIS Diagnostic Corp.).

Setting [5] is: read-out: Agonist activity (nM) CB1.
[6] abbreviates: [3H]CP55940 0.5 nM, membrane preparation of CHO cells expressing CB1, Ki calculated from IC50, read-out: Binding activity (nM) CB1.

T1 sequence (P21554 whole entry): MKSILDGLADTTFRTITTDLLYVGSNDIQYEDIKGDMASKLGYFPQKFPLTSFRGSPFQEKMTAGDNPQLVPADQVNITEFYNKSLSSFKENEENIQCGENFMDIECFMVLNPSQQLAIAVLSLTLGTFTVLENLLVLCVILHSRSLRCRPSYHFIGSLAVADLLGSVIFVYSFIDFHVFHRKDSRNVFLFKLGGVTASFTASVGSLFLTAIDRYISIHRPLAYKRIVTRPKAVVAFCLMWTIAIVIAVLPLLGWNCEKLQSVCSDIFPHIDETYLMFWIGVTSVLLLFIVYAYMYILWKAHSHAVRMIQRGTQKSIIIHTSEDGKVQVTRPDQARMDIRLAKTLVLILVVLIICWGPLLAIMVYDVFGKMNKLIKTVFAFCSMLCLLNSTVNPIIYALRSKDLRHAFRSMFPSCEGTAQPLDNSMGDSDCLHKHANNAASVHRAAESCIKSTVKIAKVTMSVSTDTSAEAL
T2 sequence (P34972 whole entry): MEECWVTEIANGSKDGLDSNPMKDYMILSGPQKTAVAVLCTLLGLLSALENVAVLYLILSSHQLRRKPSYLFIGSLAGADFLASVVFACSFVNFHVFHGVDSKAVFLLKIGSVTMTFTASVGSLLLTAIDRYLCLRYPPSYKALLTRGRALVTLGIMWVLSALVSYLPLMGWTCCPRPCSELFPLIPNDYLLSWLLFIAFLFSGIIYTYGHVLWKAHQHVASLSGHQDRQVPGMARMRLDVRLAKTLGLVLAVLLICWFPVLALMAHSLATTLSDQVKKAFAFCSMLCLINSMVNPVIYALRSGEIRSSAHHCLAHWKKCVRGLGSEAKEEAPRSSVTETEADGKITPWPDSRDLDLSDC

Consider `CCc1c(C)cc(C(=O)NC2(C(=O)O)CCCCC2)c(=O)n1Cc1ccc(F)cc1` [Compound I-493], for which the Ki at CB1 receptor [1] was more than 2000 nM; at CB2 receptor [3] ([3H]CP55940 0.5 nM, membrane preparation of CHO cells expressing CB2, Ki calculated from IC50, read-out: Binding activity (nM) CB2), 36 nM. The IC50 at CB2 receptor [2] (inhibition of forskolin (4 μM)-stimulated cAMP formation, CHO cells expressing human CB2, read-out: Agonist activity (nM) CB2) was 24 nM.

With `O=C(O)C1=C(NC(=O)c2cc3c(n(CC4CCCCC4)c2=O)CCCCCC3)CCCC1` [Compound X-126], the IC50 on CB1 receptor [4] (setting [5]) amounted to 131 nM; against CB2 receptor [2] it was 35 nM. Also, the Ki at CB1 receptor [1] stood at 873 nM; on CB2 receptor [3], 31 nM.

Take `CCCCn1c2c(cc(C(=O)NC(CC)(CC)CC(=O)O)c1=O)CCCCCC2` [Compound X-128]: the IC50 stood at 152 nM on CB1 receptor [4] and 3 nM on CB2 receptor [2]. In addition, the results for the Ki on CB1 receptor [1] (setting [6]) and at CB2 receptor [3] were 608 nM and 10 nM, respectively.

Regarding `CCc1c(C)cc(C(=O)Nc2nc(CC(=O)O)ns2)c(=O)n1CC1CCCCC1` [Compound X-133], the IC50 on CB1 receptor [4] was more than 2000 nM; against CB2 receptor [2], less than 2 nM. The figures for the Ki at CB1 receptor [1] (setting [6]) and at CB2 receptor [3] were more than 2000 nM and 5.5 nM, respectively.

Regarding `CCCCn1c2c(cc(C(=O)N[C@H](CC(=O)O)CC(C)C)c1=O)CCCCCC2` [Compound X-138], the IC50 is more than 2000 nM on CB1 receptor [4] and 30 nM against CB2 receptor [2]. The results for the Ki on CB1 receptor [1] (setting [6]) and at CB2 receptor [3] were more than 2000 nM and 42 nM, respectively.

For `CCCCn1c2c(cc(C(=O)NC3(CC(=O)O)CCCCC3)c1=O)CCCCCC2` [Compound X-157], the values for the IC50 against CB1 receptor [4] and against CB2 receptor [2] were 268 nM and less than 2 nM, respectively. Also, the Ki at CB1 receptor [1] (setting [6]) was 270 nM; on CB2 receptor [3], 3.4 nM.

Take `CCCCn1c(CCC)c(CC)cc(C(=O)NC2(CC(=O)O)CCCCC2)c1=O` [Compound X-174]: the IC50 at CB1 receptor [4] is more than 2000 nM; against CB2 receptor [2] it was 9.8 nM. Also, the Ki is more than 2000 nM at CB1 receptor [1] (setting [6]) and 8.9 nM on CB2 receptor [3].

In the case of `CCCCn1c(CCC)c(CC)cc(C(=O)NC(CC)(CC)CC(=O)O)c1=O` [Compound X-196], the IC50 is more than 2000 nM against CB1 receptor [4] and 45 nM against CB2 receptor [2]. For the same compound, the Ki on CB1 receptor [1] (setting [6]) was more than 2000 nM; at CB2 receptor [3], 31 nM.

For the compound `CCc1c(C)cc(C(=O)NCC2(CC(=O)O)CCCCC2)c(=O)n1Cc1ccc(F)cc1` [Compound X-197], the IC50 at CB1 receptor [4] (setting [5]) came to 708 nM; against CB2 receptor [2], 7.2 nM. The Ki worked out at 1260 nM at CB1 receptor [1] and 41 nM on CB2 receptor [3].

Turning to `CCCCn1c2c(cc(C(=O)NC(CCC(=O)O)CC(C)C)c1=O)CCCCCC2` (stereo not drawn) [Compound X-202], the values for the IC50 against CB1 receptor [4] and at CB2 receptor [2] were more than 2000 nM and 81 nM, respectively. The results for the Ki on CB1 receptor [1] (setting [6]) and at CB2 receptor [3] were 1180 nM and 46 nM, respectively.

Consider `CCc1c(C)cc(C(=O)Nc2nc(CC(=O)O)cs2)c(=O)n1Cc1ccc(F)cc1` [Compound X-222], for which the IC50 against CB1 receptor [4] is more than 2000 nM; against CB2 receptor [2] it was 57 nM. In addition, the figures for the Ki at CB1 receptor [1] (setting [6]) and on CB2 receptor [3] were 1620 nM and 43 nM, respectively.

For `CCc1c(C)cc(C(=O)NC2(C(=O)O)CCCCCCCCC2)c(=O)n1Cc1ccc(F)cc1` [Compound X-231], the IC50 on CB1 receptor [4] was more than 2000 nM; on CB2 receptor [2], 35 nM. Moreover, the Ki at CB1 receptor [1] (setting [6]) is more than 2000 nM; at CB2 receptor [3], 38 nM.

Consider `CCCCn1c2c(cc(C(=O)NC3(C(=O)O)CCCCCCCCC3)c1=O)CCCCCC2` [Compound X-232], for which the IC50 was more than 2000 nM against CB1 receptor [4] and 29 nM against CB2 receptor [2]. In addition, the Ki on CB1 receptor [1] (setting [6]) is more than 2000 nM; at CB2 receptor [3] it was 15 nM.

With `CCCCn1c(CCC)c(CC)cc(C(=O)NC2(CC(=O)O)CCCC2)c1=O` [Compound X-233], the IC50 is more than 2000 nM at CB1 receptor [4] and 15 nM at CB2 receptor [2]. Also, the values for the Ki on CB1 receptor [1] (setting [6]) and on CB2 receptor [3] were more than 2000 nM and 24 nM, respectively.

As to `CCc1c(C)cc(C(=O)NC2(CC(=O)O)CCCC2)c(=O)n1Cc1ccc(F)cc1` [Compound X-234], the IC50 against CB1 receptor [4] was found to be 375 nM; on CB2 receptor [2], 6.1 nM. Further, the Ki at CB1 receptor [1] (setting [6]) is 482 nM; at CB2 receptor [3] it was 4 nM.

With `CCCCn1c2c(cc(C(=O)NC3(CC(=O)O)CCCC3)c1=O)CCCCCC2` [Compound X-235], the IC50 is 270 nM at CB1 receptor [4] (setting [5]) and 4.7 nM at CB2 receptor [2]. For the same compound, the figures for the Ki at CB1 receptor [1] and at CB2 receptor [3] were 950 nM and 3.7 nM, respectively.
